From ChEMBL document CHEMBL1201862, “PubChem BioAssay data set” (2004)
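Cells were grown in 96-well plates and exposed to each compound for 48 hours at five concentrations; endpoints were interpolated linearly between bracketing concentrations, or set to the highest concentration if not reached. GI50 = concentration required for 50% inhibition of growth.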 The source made the active and inactive calls. Rule as the data show it: active = GI50 up to about 1.1 µM and inactive = higher.

How the values were obtained:
Test in all cases: NCI anticancer screen, dose series, 48 h
SNB-75 = tested on: SNB-75
T47D = tested on: T47D
NCI-H23 = tested on: NCI-H23
SF-539 = tested on: SF-539
Malme-3M = tested on: Malme-3M
HL-60 = tested on: HL-60
MDA-N = tested on: MDA-N
M14 = tested on: M14
A549 = tested on: A549
NCI/ADR-RES = tested on: NCI/ADR-RES
HCC 2998 = tested on: HCC 2998
OVCAR-4 = tested on: OVCAR-4
TK-10 = tested on: TK-10
SN12C = tested on: SN12C
NCI-H460 = tested on: NCI-H460
BT-549 = tested on: BT-549
NCI-H522 = tested on: NCI-H522
MOLT-4 = tested on: MOLT-4
MDA-MB-435 = tested on: MDA-MB-435
OVCAR-5 = tested on: OVCAR-5

Measured: GI50

O=C(O)c1ccc(NC(c2ccccc2)c2ccc3cccnc3c2O)cc1 (stereo not given)
inactive: SNB-75 11.6 µM | T47D 10.9 µM | NCI-H23 14.7 µM | SF-539 5.66 µM | Malme-3M 29 µM | HL-60 2.65 µM | MDA-N 17.5 µM | M14 6.19 µM | A549 5.94 µM | NCI/ADR-RES 3.5 µM | HCC 2998 13 µM | OVCAR-4 4.63 µM | TK-10 13.7 µM | SN12C 6.87 µM | NCI-H460 4.09 µM | BT-549 10 µM | NCI-H522 4.06 µM | MOLT-4 3.56 µM | MDA-MB-435 16.3 µM | OVCAR-5 16.8 µM

O=S(=O)(SC1=NCCN1)c1ccc2ccccc2c1
inactive: SNB-75 25.2 µM | T47D 81.7 µM | NCI-H23 22.9 µM | SF-539 23.8 µM | Malme-3M 72.6 µM | HL-60 16.3 µM | MDA-N 19.8 µM | M14 23.3 µM | A549 26.8 µM | NCI/ADR-RES 21.8 µM | HCC 2998 20.6 µM | OVCAR-4 52.4 µM | TK-10 89.1 µM | SN12C 24.4 µM | NCI-H460 21.6 µM | BT-549 24.5 µM | NCI-H522 17.4 µM | MOLT-4 24.8 µM | MDA-MB-435 20.7 µM | OVCAR-5 18.8 µM

Cc1ccc(NC(=O)CSc2nc(C)nc3c2sc(=S)n3-c2ccccc2)cc1
inactive: SNB-75 2.32 µM | T47D > 10 µM | NCI-H23 > 10 µM | SF-539 3.01 µM | Malme-3M 7.8 µM | HL-60 > 10 µM | MDA-N > 10 µM | M14 2.79 µM | A549 > 10 µM | NCI/ADR-RES 4.7 µM | HCC 2998 > 10 µM | OVCAR-4 2.2 µM | TK-10 > 10 µM | SN12C 6.49 µM | NCI-H460 5.48 µM | BT-549 4.09 µM | NCI-H522 > 10 µM | MOLT-4 > 10 µM | MDA-MB-435 4.06 µM | OVCAR-5 > 10 µM

COc1c(OC)c(O)c2c(=O)c(OC)c(-c3ccc4c(c3)OCO4)oc2c1O
inactive: SNB-75 > 100 µM | T47D 24.5 µM | NCI-H23 > 100 µM | SF-539 > 100 µM | Malme-3M > 100 µM | HL-60 19.5 µM | MDA-N > 100 µM | M14 > 100 µM | A549 > 100 µM | NCI/ADR-RES > 100 µM | HCC 2998 > 100 µM | OVCAR-4 > 100 µM | TK-10 > 100 µM | SN12C > 100 µM | NCI-H460 > 100 µM | BT-549 > 100 µM | NCI-H522 > 100 µM | MOLT-4 40.1 µM | MDA-MB-435 > 100 µM | OVCAR-5 > 100 µM

COC(=O)C1Cc2cc3c(cc2C1=O)CCCC3 (stereo not given)
inactive: SNB-75 70.3 µM | T47D 37.6 µM | NCI-H23 43.2 µM | SF-539 > 100 µM | Malme-3M > 100 µM | HL-60 29.2 µM | MDA-N > 100 µM | M14 > 100 µM | A549 > 100 µM | NCI/ADR-RES 48.9 µM | HCC 2998 > 100 µM | OVCAR-4 64.9 µM | TK-10 28 µM | SN12C 77.4 µM | NCI-H460 > 100 µM | BT-549 22.3 µM | NCI-H522 80.5 µM | MOLT-4 41.2 µM | MDA-MB-435 > 100 µM | OVCAR-5 72.9 µM

COc1ccc(NC(=O)/C(=N/NC(N)=S)C2C(=O)NC(=S)NC2=O)c(OC)c1
inactive: SNB-75 > 100 µM | T47D > 100 µM | NCI-H23 > 100 µM | SF-539 > 100 µM | Malme-3M > 100 µM | HL-60 > 100 µM | MDA-N > 100 µM | M14 > 100 µM | A549 > 100 µM | NCI/ADR-RES > 100 µM | HCC 2998 > 100 µM | OVCAR-4 > 100 µM | TK-10 > 100 µM | SN12C > 100 µM | NCI-H460 > 100 µM | BT-549 > 100 µM | NCI-H522 > 100 µM | MOLT-4 > 100 µM | MDA-MB-435 > 100 µM | OVCAR-5 > 100 µM

CCCCCCCCCC[C@H](O)[C@H]1CC[C@@H]([C@@H](O)CC[C@H](O)[C@@H]2CCC(CCCCCCC[C@@H](O)CC3=C[C@H](C)OC3=O)O2)O1 (stereo not given in full)
inactive: SNB-75 2.47 µM | T47D 3.08 µM | NCI-H23 1.31 µM | SF-539 1.79 µM | Malme-3M 3.4 µM | HL-60 1.44 µM | MDA-N 2.43 µM | M14 1.5 µM | A549 1.77 µM | NCI/ADR-RES 1.34 µM | HCC 2998 4.33 µM | OVCAR-4 4.4 µM | TK-10 1.59 µM | SN12C 2.94 µM | NCI-H460 1.86 µM | BT-549 5.08 µM | NCI-H522 3.7 µM | MOLT-4 2.92 µM | MDA-MB-435 1.33 µM | OVCAR-5 3.49 µM

CC(C)CC(=O)OC[n+]1ccc(-c2c(COC(=O)NC(C)C)c(COC(=O)NC(C)C)c3n2CCC3)cc1
inactive: SNB-75 > 100 µM | T47D > 100 µM | NCI-H23 75.2 µM | SF-539 27.6 µM | Malme-3M > 100 µM | HL-60 65.8 µM | MDA-N > 100 µM | M14 > 100 µM | A549 > 100 µM | NCI/ADR-RES > 100 µM | HCC 2998 > 100 µM | OVCAR-4 > 100 µM | TK-10 > 100 µM | SN12C > 100 µM | NCI-H460 76.9 µM | BT-549 > 100 µM | NCI-H522 > 100 µM | MOLT-4 32.3 µM | MDA-MB-435 > 100 µM | OVCAR-5 > 100 µM

O=C1N/C(=N/N=C\c2ccccc2)N/C1=C/c1ccccc1
inactive: SNB-75 25.6 µM | T47D 30.3 µM | NCI-H23 21.7 µM | SF-539 20.5 µM | Malme-3M 34.2 µM | HL-60 34 µM | MDA-N 30.6 µM | M14 45.4 µM | A549 35.7 µM | NCI/ADR-RES 22.9 µM | HCC 2998 13.9 µM | OVCAR-4 15.2 µM | TK-10 38.5 µM | SN12C 39.7 µM | NCI-H460 20.6 µM | BT-549 22.9 µM | NCI-H522 23.1 µM | MOLT-4 14.4 µM | MDA-MB-435 17.1 µM | OVCAR-5 21.6 µM

COC(=O)c1ccccc1NC(=O)C(=O)CC(=O)c1ccccc1NC1=CC(=O)C(=O)c2ccccc21
inactive: SNB-75 17.5 µM | T47D 18.7 µM | NCI-H23 5.09 µM | SF-539 18.6 µM | Malme-3M 3.02 µM | HL-60 1.55 µM | MDA-N 1.71 µM | M14 5.12 µM | A549 16.3 µM | NCI/ADR-RES 2.33 µM | HCC 2998 25.6 µM | OVCAR-4 7.91 µM | TK-10 67.6 µM | SN12C 3.94 µM | NCI-H460 19.7 µM | BT-549 15.2 µM | NCI-H522 5.22 µM | MOLT-4 3.98 µM | MDA-MB-435 4.15 µM | OVCAR-5 29.2 µM
